The target of this assay is T1, Hypoxanthine-guanine phosphoribosyltransferase (Homo sapiens, UniProt P00492).
T1 sequence (P00492 whole entry): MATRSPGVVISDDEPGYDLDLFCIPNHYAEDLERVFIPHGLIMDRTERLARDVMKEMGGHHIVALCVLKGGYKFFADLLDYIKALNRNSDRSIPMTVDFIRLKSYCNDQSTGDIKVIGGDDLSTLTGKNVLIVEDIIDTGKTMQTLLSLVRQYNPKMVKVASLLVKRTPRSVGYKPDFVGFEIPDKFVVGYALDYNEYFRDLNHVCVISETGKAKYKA
In words: Kinetic inhibition constant of compound with human Hypoxanthine Phosphoribosyltransferase (HPRT).

This passage reports Ki results from ChEMBL document CHEMBL1144870 (J Med Chem, 2003).

The Ki is a dissociation constant, usually derived from enzyme kinetics or from competition with a known ligand. The low end stands for a stronger hold on the target, the high end for a looser hold on the target.

`O=C(Nc1cc2c3ccccc3ccc2c2ccccc12)C(Cl)Cl` showed an inhibition constant (Ki) of 16 µM.
